Kb data for 14 compounds are collected here from patent US20090036422A1 (priority 2007, published 2009).

As a reminder, the Kb is the affinity of an antagonist, worked out from how it opposes an agonist. High values mean lower antagonist affinity, low ones higher antagonist affinity.

Counter-ions that a name gives are not always drawn.

This test deals with T1, human orexin-2 (hOX2) receptor (Homo sapiens, UniProt O43614).
T1 construct: expressed in transfected cells
T1 sequence (O43614 1-444): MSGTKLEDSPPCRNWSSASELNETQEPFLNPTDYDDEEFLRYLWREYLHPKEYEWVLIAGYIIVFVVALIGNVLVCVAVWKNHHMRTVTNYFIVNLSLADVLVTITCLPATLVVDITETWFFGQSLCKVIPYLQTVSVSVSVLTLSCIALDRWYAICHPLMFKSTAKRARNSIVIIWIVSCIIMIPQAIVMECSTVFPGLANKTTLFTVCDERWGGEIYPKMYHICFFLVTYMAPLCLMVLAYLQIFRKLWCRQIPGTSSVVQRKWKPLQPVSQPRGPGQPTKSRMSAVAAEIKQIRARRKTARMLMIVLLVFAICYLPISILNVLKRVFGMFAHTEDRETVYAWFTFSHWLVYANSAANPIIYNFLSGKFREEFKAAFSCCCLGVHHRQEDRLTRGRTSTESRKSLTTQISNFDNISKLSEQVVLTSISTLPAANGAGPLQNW
Briefly: Intracellular Ca2+ mobilization assay (FLIPR), CHO(dHFr-) cells expressing hOX2, orexin-A at EC80 as agonist. The format is cell-based. The following applies: Kb=IC50/(1+[A]/EC50); CHO(dHFr-)-OX2R cells, antagonist applied 25 min before orexin-A EC80. In a few lines:
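Fluo-4-loaded CHO(dHFr−) cells stably expressing hOX2 were preincubated 25 min at 37 °C with antagonist (11 concentrations, 0.0001–10 μM), then challenged with orexin-A at its daily-determined EC80. Peak fluorescence over basal read by FLIPR; IC50 from Hill fit, Kb via Kb=IC50/(1+[A]/EC50).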
Background: Calcium assays in cells follow changes in intracellular calcium, usually with a dye or a luminescent sensor.
The compound `N[C@H](C(=O)N(CCc1ccc(C(F)(F)F)cc1)c1ccc2c(c1)CCCC2)c1ccccc1` [Example 150, (S)-2-Amino-2-phenyl-N-(5,6,7,8-tetrahydro-naphthalen-2-yl)-N-[2-(4-trifluoromethyl-phenyl)-ethyl]-acetamide] gave a Kb of 0.0682 µM.

As to `COc1cccc(N(CCc2ccc(C(F)(F)F)cc2)C(=O)[C@@H](N)c2ccccc2)c1` [Example 151, (S)-2-Amino-N-(3-methoxy-phenyl)-2-phenyl-N-[2-(4-trifluoromethyl-phenyl)-ethyl]-acetamide], the Kb is 0.0112 µM.

Regarding `Cc1ccc(N(CCc2ccc(C(F)(F)F)cc2)C(=O)[C@@H](N)c2ccc(F)cc2)cc1C` [Example 154, (S)-2-Amino-N-(3,4-dimethyl-phenyl)-2-(4-fluoro-phenyl)-N-[2-(4-trifluoromethyl-phenyl)-ethyl]-acetamide], the Kb turned out to be 0.051 µM.

`CN[C@H](C(=O)N(CCc1ccc(C(F)(F)F)cc1)c1ccc(C)c(C)c1)c1ccccc1OC` [Example 157, (S)—N-(3,4-Dimethyl-phenyl)-2-(2-methoxy-phenyl)-2-methylamino-N-[2-(4-trifluoromethyl-phenyl)-ethyl]-acetamide]: the Kb turned out to be 0.0322 µM.

For `Cc1ccc(N(CCc2ccc(C(F)(F)F)cc2)C(=O)[C@@H](O)c2ccccc2)cc1C` [Example 159, (S)—N-(3,4-Dimethyl-phenyl)-2-hydroxy-2-phenyl-N-[2-(4-trifluoromethyl-phenyl)-ethyl]-acetamide], the Kb worked out at 0.0542 µM.

For `COc1cccc(N(CCc2ccc(C(F)(F)F)cc2)C(=O)[C@@H](N)c2ccc(F)cc2)c1` [Example 160], the Kb stood at 0.0291 µM.

`Cc1ccc(N(CCc2ccc(C(F)(F)F)cc2)C(=O)[C@@H](O)c2ccc(F)cc2)cc1C` [Example 161, (S)—N-(3,4-Dimethyl-phenyl)-2-(4-fluoro-phenyl)-2-hydroxy-N-[2-(4-trifluoromethyl-phenyl)-ethyl]-acetamide] registered a Kb of 0.0908 µM.

On to `COc1cc(N(CCc2ccc(C(F)(F)F)cc2)C(=O)[C@@H](N)c2ccccc2)ccc1C` [Example 162, (S)-2-Amino-N-(3-methoxy-4-methyl-phenyl)-2-phenyl-N-[2-(4-trifluoromethyl-phenyl)-ethyl]-acetamide], for which the Kb was found to be 0.0151 µM.

The compound `N[C@H](C(=O)N(CCc1ccc(C(F)(F)F)cc1)c1ccc(OC(F)F)c(Cl)c1)c1ccc(F)cc1` [Example 163, (S)-2-Amino-N-(3-chloro-4-difluoromethoxy-phenyl)-2-(4-fluoro-phenyl)-N-[2-(4-trifluoromethyl-phenyl)-ethyl]-acetamide] showed a Kb of 0.0778 µM.

For `CCOc1ccc(N(CCc2ccc(C(F)(F)F)cc2)C(=O)[C@@H](N)c2ccc(F)cc2)cc1Cl` [Example 165, (S)-2-Amino-N-(3-chloro-4-ethoxy-phenyl)-2-(4-fluoro-phenyl)-N-[2-(4-trifluoromethyl-phenyl)-ethyl]-acetamide], the Kb was found to be 0.0673 µM.

With `COc1ccc(N(CCc2ccc(C(F)(F)F)cc2)C(=O)[C@@H](N)c2ccccc2)cc1OC` [Example 173, (S)-2-Amino-N-(3,4-dimethoxy-phenyl)-2-phenyl-N-[2-(4-trifluoromethyl-phenyl)-ethyl]-acetamide hydrochloride], the Kb came to 0.0011 µM.

Compound `Cc1ccc(N(CCc2ccc(F)cc2)C(=O)[C@@H](N)c2ccccc2)cc1C` [Example 175, (S)-2-Amino-N-(3,4-dimethyl-phenyl)-N-[2-(4-fluoro-phenyl)-ethyl]-2-phenyl-acetamide] came in with a Kb of 0.0219 µM.

For the compound `Cc1ccc(N(CCc2ccc(OC(F)(F)F)cc2)C(=O)[C@@H](N)c2ccccc2)cc1C` [Example 176, (S)-2-Amino-N-(3,4-dimethyl-phenyl)-2-phenyl-N-[2-(4-trifluoromethoxy-phenyl)-ethyl]-acetamide], the Kb was found to be 0.0505 µM.

Turning to `Cc1ccc(N(CCc2ccccc2F)C(=O)[C@@H](N)c2ccccc2)cc1C` [Example 180, (S)-2-Amino-N-(3,4-dimethyl-phenyl)-N-[2-(2-fluoro-phenyl)-ethyl]-2-phenyl-acetamide hydrochloride], the antagonist dissociation constant (Kb) worked out at 0.036 µM.
